Data taken from patent US20100249093A1, “Substituted Heteroarylpiperidine Derivatives As Melanocortin-4 Receptor Modulators” (SANTHERA PHARMACEUTICALS (SCHWEIZ) AG, priority 2007, published 2010).
pEC50, pIC50: −log10 of the molar value.

Tests used:
[1] = molecular target: T1, human melanocortin-4 receptor (MC-4R) (Homo sapiens, UniProt P32245); test: Membrane binding assay: competition with fluorescence labeled NDP-alpha-MSH, fluorescence polarization; conditions: HEK293 cell membrane preparations expressing human MC-4R, read-out: hMC-4R binding assay IC50
T1 construct: expressed in transfected cells; host or cells: HEK293
T1 sequence (P32245 whole entry): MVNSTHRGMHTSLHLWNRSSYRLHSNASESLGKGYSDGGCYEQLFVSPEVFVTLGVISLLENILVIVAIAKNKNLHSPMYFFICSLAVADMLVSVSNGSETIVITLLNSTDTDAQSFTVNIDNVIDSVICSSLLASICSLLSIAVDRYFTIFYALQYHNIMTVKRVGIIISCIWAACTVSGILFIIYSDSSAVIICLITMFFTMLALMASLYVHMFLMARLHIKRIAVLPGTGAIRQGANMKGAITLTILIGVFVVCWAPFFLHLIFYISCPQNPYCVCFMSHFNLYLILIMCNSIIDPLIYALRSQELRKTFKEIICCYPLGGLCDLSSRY

[2] = molecular target: T1, human melanocortin-4 receptor (MC-4R); test: Functional assay: agonistic activity, cAMP production in membrane preparations compared with NDP-alpha-MSH, fluorescence polarization; type: biochemical; conditions: for Emax: cAMP produced compared to stimulation with NDP-alpha-MSH, read-out: % activation functional assay; for pEC50: cAMP production, membrane preparations from HEK293 cells expressing human MC-4R, read-out: hMC-4R functional assay EC50

## CN(C)[C@@H]1CCC[C@@H]1Oc1cccnc1C1CCN(C(=O)[C@@H](Cc2ccc(Cl)cc2Cl)NC(=O)N2CCCC2)CC1 [Example 57]
[1]
  pIC50: ≥ 7.00
[2]
  Emax: 5%

## CN(C)C[C@@H](Oc1cccnc1C1CCN(C(=O)[C@@H](Cc2ccc(Cl)cc2Cl)NC(=O)N2CCCC2)CC1)C(F)(F)F [Example 58]
[1]
  pIC50: 6.00 to 7.00
[2]
  Emax: 4%

## CN1CCN(Cc2cc(F)cnc2C2CCN(C(=O)[C@@H](Cc3ccc(Cl)cc3Cl)NC(=O)N3CCCC3)CC2)CC1 [Example 59]
[1]
  pIC50: ≥ 7.00
[2]
  Emax: -1%

## CC[C@H](COc1cc(F)cnc1C1CCN(C(=O)[C@@H](Cc2ccc(Cl)cc2Cl)NC(=O)N2CCCC2)CC1)N(C)C [Example 60]
[1]
  pIC50: ≥ 7.00
[2]
  Emax: -12%

## CC[C@@H](CN(C)C)Oc1cc(F)cnc1C1CCN(C(=O)[C@@H](Cc2ccc(Cl)cc2Cl)NC(=O)N2CCCC2)CC1 [Example 61]
[1]
  pIC50: ≥ 7.00
[2]
  Emax: 1%

## C[C@@H](CCN(C)C)Oc1cccnc1C1CCN(C(=O)[C@@H](Cc2ccc(Cl)cc2Cl)NC(=O)N2CCCC2)CC1 [Example 62]
[1]
  pIC50: ≥ 7.00
[2]
  Emax: -10%

## CC[C@@H](CN1CCCC1)Oc1nccnc1C1CCN(C(=O)[C@@H](Cc2ccc(Cl)cc2Cl)NC(=O)N2CCCC2)CC1 [Example 63]
[1]
  pIC50: ≥ 7.00
[2]
  Emax: 0%

## CC[C@H](COc1nc(C)ncc1C1CCN(C(=O)[C@@H](Cc2ccc(Cl)cc2Cl)NC(=O)N2CCCC2)CC1)N(C)C [Example 64]
[1]
  pIC50: ≥ 7.00
[2]
  Emax: 13%

## Cc1ccc(C2CCN(C(=O)[C@@H](Cc3ccc(Cl)cc3F)NC(=O)N3CCCC3)CC2)c(N2CCN(C)CC2)n1 [Example 65]
[1]
  pIC50: ≥ 7.00
[2]
  Emax: 0%

## Cc1ccc(C2CCN(C(=O)[C@@H](Cc3ccc(F)cc3Cl)NC(=O)N3CCCC3)CC2)c(N2CCN(C)CC2)n1 [Example 66]
[1]
  pIC50: 6.00 to 7.00
[2]
  Emax: 0%

## Cc1ccc(C2CCN(C(=O)[C@@H](Cc3ccc(F)cc3F)NC(=O)N3CCCC3)CC2)c(N2CCN(C)CC2)n1 [Example 67]
[1]
  pIC50: < 6.00
[2]
  Emax: 33%
  pEC50: < 6.00

## CC[C@H](COc1cccnc1C1CCN(C(=O)[C@@H](Cc2ccc(C)cc2C)NC(=O)N2CCCC2)CC1)N1CCCC1 [Example 70]
[1]
  pIC50: ≥ 7.00
[2]
  Emax: -2%

## CC[C@H](COc1cc(Cl)cnc1C1CCN(C(=O)[C@@H](Cc2ccc(C)cc2C)NC(=O)N2CCCC2)CC1)N1CCCC1 [Example 71]
[1]
  pIC50: ≥ 7.00
[2]
  Emax: -4%

## CC[C@H](COc1cc(Cl)cnc1C1CCN(C(=O)[C@@H](Cc2ccc(C)cc2C)NC(=O)N2CCCC2)CC1)N(C)C [Example 73]
[1]
  pIC50: ≥ 7.00
[2]
  Emax: -15%

## CC[C@H](COc1cc(Cl)cnc1C1CCN(C(=O)[C@@H](Cc2ccc(C)cc2C)NC(=O)N2CC(O)C2)CC1)N(C)C [Example 74]
[1]
  pIC50: ≥ 7.00
[2]
  Emax: -5%

## CC[C@H](COc1cc(F)cnc1C1CCN(C(=O)[C@@H](Cc2ccc(Cl)cc2Cl)NC(=O)N2CC(O)C2)CC1)N(C)C [Example 75]
[1]
  pIC50: ≥ 7.00
[2]
  Emax: -1%

## CC[C@H](COc1cccnc1C1CCN(C(=O)[C@@H](Cc2ccc(Cl)cc2Cl)NC(=O)N2CCC2)CC1)N1CCCC1 [Example 76]
[1]
  pIC50: ≥ 7.00
[2]
  Emax: 0%

## CC[C@H](COc1cccnc1C1CCN(C(=O)[C@@H](Cc2ccc(Cl)cc2Cl)NC(=O)N(C)C)CC1)N1CCCC1 [Example 77]
[1]
  pIC50: ≥ 7.00
[2]
  Emax: 0%

## CC[C@H](COc1cccnc1C1CCN(C(=O)[C@@H](Cc2ccc(Cl)cc2Cl)NC(=O)N(CC)CC)CC1)N1CCCC1 [Example 78]
[1]
  pIC50: ≥ 7.00
[2]
  Emax: 0%

## CC[C@H](COc1cccnc1C1CCN(C(=O)[C@@H](Cc2ccc(Cl)cc2Cl)NC(=O)N(C)CC)CC1)N1CCCC1 [Example 79]
[1]
  pIC50: ≥ 7.00
[2]
  Emax: 0%

## CC[C@H](COc1cccnc1C1CCN(C(=O)[C@@H](Cc2ccc(Cl)cc2Cl)NC(=O)N2CC[C@@H](O)C2)CC1)N1CCCC1 [Example 80]
[1]
  pIC50: ≥ 7.00
[2]
  Emax: 0%

## CC[C@H](COc1cccnc1C1CCN(C(=O)[C@@H](Cc2ccc(Cl)cc2Cl)NC(=O)N2CC[C@@H](F)C2)CC1)N1CCCC1 [Example 81]
[1]
  pIC50: ≥ 7.00
[2]
  Emax: 0%

## CC[C@H](COc1cccnc1C1CCN(C(=O)[C@@H](Cc2ccc(Cl)cc2Cl)NC(=O)N2CCC(F)CC2)CC1)N1CCCC1 [Example 82]
[1]
  pIC50: ≥ 7.00
[2]
  Emax: 0%

## CC[C@H](COc1cccnc1C1CCN(C(=O)[C@@H](Cc2ccc(Cl)cc2Cl)NC(=O)N2CCC(F)(F)CC2)CC1)N1CCCC1 [Example 83]
[1]
  pIC50: ≥ 7.00
[2]
  Emax: 0%

## CC[C@H](COc1cccnc1C1CCN(C(=O)[C@@H](Cc2ccc(Cl)cc2Cl)NC(=O)N2CC(O)C2)CC1)N1CCCC1 [Example 84]
[1]
  pIC50: ≥ 7.00
[2]
  Emax: 0%

## CC[C@H](COc1cccnc1C1CCN(C(=O)[C@@H](Cc2ccc(Cl)cc2Cl)NC(=O)N(CCOC)CCOC)CC1)N1CCCC1 [Example 85]
[1]
  pIC50: ≥ 7.00
[2]
  Emax: 0%

## CC[C@H](COc1cccnc1C1CCN(C(=O)[C@@H](Cc2ccc(Cl)cc2Cl)NC(=O)N(C)CCO)CC1)N1CCCC1 [Example 86]
[1]
  pIC50: ≥ 7.00
[2]
  Emax: 0%

## CC[C@H](COc1cccnc1C1CCN(C(=O)[C@@H](Cc2ccc(Cl)cc2Cl)NC(=O)N(C)CCOC)CC1)N1CCCC1 [Example 87]
[1]
  pIC50: ≥ 7.00
[2]
  Emax: 0%

## CC[C@H](COc1cccnc1C1CCN(C(=O)[C@@H](Cc2ccc(Cl)cc2Cl)NC(=O)N2CCSC2)CC1)N1CCCC1 [Example 88]
[1]
  pIC50: ≥ 7.00
[2]
  Emax: 0%

## CC[C@H](COc1cccnc1C1CCN(C(=O)[C@@H](Cc2ccc(Cl)cc2Cl)NC(=O)N2CC[C@H](O)C2)CC1)N1CCCC1 [Example 89]
[1]
  pIC50: ≥ 7.00
[2]
  Emax: 0%

## CC[C@H](COc1cccnc1C1CCN(C(=O)[C@@H](Cc2ccc(Cl)cc2Cl)NC(=O)N2CC[C@H](F)C2)CC1)N1CCCC1 [Example 90]
[1]
  pIC50: ≥ 7.00
[2]
  Emax: 0%

## CC[C@H](COc1cccnc1C1CCN(C(=O)[C@@H](Cc2ccc(Cl)cc2Cl)NC(=O)N2CCOCC2)CC1)N1CCCC1 [Example 91]
[1]
  pIC50: ≥ 7.00
[2]
  Emax: 0%

## CC[C@H](COc1cccnc1C1CCN(C(=O)[C@@H](Cc2ccc(Cl)cc2Cl)NC(=O)N2CCOC[C@@H]2C)CC1)N1CCCC1 [Example 92]
[1]
  pIC50: ≥ 7.00
[2]
  Emax: 0%

## CC[C@H](COc1cccnc1C1CCN(C(=O)[C@@H](Cc2ccc(Cl)cc2Cl)NC(=O)N2C[C@@H](C)O[C@@H](C)C2)CC1)N1CCCC1 [Example 93]
[1]
  pIC50: ≥ 7.00
[2]
  Emax: 0%

## CC[C@H](COc1cccnc1C1CCN(C(=O)[C@@H](Cc2ccc(Cl)cc2Cl)NC(=O)N2CCCO2)CC1)N1CCCC1 [Example 94]
[1]
  pIC50: ≥ 7.00
[2]
  Emax: 0%

## CC[C@H](COc1cccnc1C1CCN(C(=O)[C@@H](Cc2ccc(Cl)cc2Cl)NC(=O)N2CCC=N2)CC1)N1CCCC1 [Example 95]
[1]
  pIC50: ≥ 7.00
[2]
  Emax: 0%

## CC[C@H](COc1cccnc1C1CCN(C(=O)[C@@H](Cc2ccc(Cl)cc2Cl)NC(=O)N2CCC(O)CC2)CC1)N1CCCC1 [Example 96]
[1]
  pIC50: ≥ 7.00
[2]
  Emax: 0%

## CC[C@H](COc1cccnc1C1CCN(C(=O)[C@@H](Cc2ccc(Cl)cc2Cl)NC(=O)N2C[C@H]3C[C@H]3C2)CC1)N1CCCC1 [Example 97]
[1]
  pIC50: ≥ 7.00
[2]
  Emax: 8%

## CC[C@H](COc1cccnc1C1CCN(C(=O)[C@@H](Cc2ccc(Cl)cc2Cl)NC(=O)N2CC(OC)C2)CC1)N1CCCC1 [Example 98]
[1]
  pIC50: ≥ 7.00
[2]
  Emax: 13%

## CC[C@H](COc1cccnc1C1CCN(C(=O)[C@@H](Cc2ccc(Cl)cc2Cl)NC(=O)N2CC(C)(O)C2)CC1)N1CCCC1 [Example 99]
[1]
  pIC50: ≥ 7.00
[2]
  Emax: 0%

## CC[C@H](COc1cccnc1C1CCN(C(=O)[C@@H](Cc2ccc(Cl)cc2Cl)NC(=O)N2CC(OC(C)=O)C2)CC1)N1CCCC1 [Example 100]
[1]
  pIC50: ≥ 7.00
[2]
  Emax: -7%

## CC[C@H](COc1cccnc1C1CCN(C(=O)[C@@H](Cc2ccc(Cl)cc2Cl)NC(=O)N(C)CC)CC1)N(C)C [Example 101]
[1]
  pIC50: ≥ 7.00
[2]
  Emax: 5%

## CC[C@H](COc1cccnc1C1CCN(C(=O)[C@@H](Cc2ccc(Cl)cc2Cl)NC(=O)N2CC(O)C2)CC1)N(C)C [Example 102]
[1]
  pIC50: ≥ 7.00
[2]
  Emax: -1%

## CC[C@H](COc1cccnc1C1CCN(C(=O)[C@@H](Cc2ccc(Cl)cc2Cl)NC(=O)N2CC[C@H](O)C2)CC1)N(C)C [Example 103]
[1]
  pIC50: ≥ 7.00
[2]
  Emax: -9%
  pEC50: ≥ 7.00

## CC[C@H](COc1cccnc1C1CCN(C(=O)[C@@H](Cc2ccc(Cl)cc2Cl)NC(=O)N2CCC[C@H](O)C2)CC1)N(C)C [Example 105]
[1]
  pIC50: ≥ 7.00
[2]
  Emax: -3%

## CC[C@H](COc1cccnc1C1CCN(C(=O)[C@@H](Cc2ccc(Cl)cc2Cl)NC(=O)N2CCC[C@H]2CO)CC1)N(C)C [Example 106]
[1]
  pIC50: ≥ 7.00
[2]
  Emax: -1%

## CC[C@H](COc1cccnc1C1CCN(C(=O)[C@@H](Cc2ccc(Cl)cc2Cl)NC(=O)N2CCC[C@@H]2CO)CC1)N(C)C [Example 107]
[1]
  pIC50: ≥ 7.00
[2]
  Emax: -2%

## CC[C@H](COc1cccnc1C1CCN(C(=O)[C@@H](Cc2ccc(Cl)cc2Cl)NC(=O)N2CC[C@@H](OC)C2)CC1)N(C)C [Example 108]
[1]
  pIC50: ≥ 7.00
[2]
  Emax: 0%

## CC[C@H](COc1cccnc1C1CCN(C(=O)[C@@H](Cc2ccc(Cl)cc2Cl)NC(=O)N2CC[C@H](OC)C2)CC1)N(C)C [Example 109]
[1]
  pIC50: ≥ 7.00
[2]
  Emax: -11%

## CC[C@H](COc1cccnc1C1CCN(C(=O)[C@@H](Cc2ccc(Cl)cc2Cl)NC(=O)N2CCC(C)(O)C2)CC1)N(C)C (stereo partly shown) [Example 110]
[1]
  pIC50: ≥ 7.00
[2]
  Emax: 0%

## CC[C@H](COc1cccnc1C1CCN(C(=O)[C@@H](Cc2ccc(Cl)cc2Cl)NC(=O)N(C)CC(C)(C)O)CC1)N(C)C [Example 111]
[1]
  pIC50: ≥ 7.00
[2]
  Emax: -23%

## CC[C@H](COc1cccnc1C1CCN(C(=O)[C@@H](Cc2ccc(Cl)cc2Cl)NC(=O)N2CCC(C)(O)CC2)CC1)N(C)C [Example 112]
[1]
  pIC50: ≥ 7.00
[2]
  Emax: -8%
